Source: patent US20170050957A1, “4-AMINO-6-(HETEROCYCLIC)PICOLINATES AND 6-AMINO-2-(HETEROCYCLIC)PYRIMIDINE-4-CARBOXYLATES AND THEIR USE AS HERBICIDES” (Dow AgroSciences LLC, priority 2013, published 2017)
Where two headings read alike, the source gives them in different places.

Experiments:
[1] = system: Key Grass and Sedge Weeds as well as Grass Crops; test: Post-emergent Test II herbicidal activity (Table 16); assay type: in vivo; details: post-emergence, 336 h, 14 d; for pest or weed control at 35 g/ha: 35 g ai/ha; for pest or weed control at 70 g/ha: 70 g ai/ha; for pest or weed control at 140 g/ha: 140 g ai/ha
Outline: (§1)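 Visual injury rating (0 = none, 100 = complete kill) taken 14 d after treatment, relative to untreated plants. Compounds in acetone/DMSO with crop oil concentrate and Triton X-155 were track-sprayed at 187 L/ha onto seedlings at the first-second true leaf stage.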

[2] = system: Key Broadleaf Weed and Crop Species; test: Post-emergent Test II herbicidal activity (Table 15); assay type: in vivo; details: post-emergence, 336 h, 14 d; for pest or weed control at 35 g/ha: 35 g ai/ha; for pest or weed control at 70 g/ha: 70 g ai/ha; for pest or weed control at 140 g/ha: 140 g ai/ha
Outline: as §1

[3] = Cyperus esculentus, yellow nutsedge (Cyperus esculentus), read-out: Visual Growth Reduction (%) 14 Days After Application, CYPES
[4] = Echinochloa crus-galli, barnyardgrass (Echinochloa crus-galli), read-out: Visual Growth Reduction (%) 14 Days After Application, ECHCG
[5] = Oryza sativa, rice (Oryza sativa), read-out: Visual Growth Reduction (%) 14 Days After Application, ORYSA
[6] = Setaria faberi, giant foxtail (Setaria faberi), read-out: Visual Growth Reduction (%) 14 Days After Application, SETFA
[7] = Triticum aestivum, wheat, spring (Triticum aestivum), read-out: Visual Growth Reduction (%) 14 Days After Application, TRZAS
[8] = Zea mays, maize, corn (Zea mays), read-out: Visual Growth Reduction (%) 14 Days After Application, ZEAMX
[9] = Abutilon theophrasti, velvetleaf (Abutilon theophrasti), read-out: Visual Growth Reduction (%) 14 Days After Application, ABUTH
[10] = Amaranthus retroflexus, redroot pigweed (Amaranthus retroflexus), read-out: Visual Growth Reduction (%) 14 Days After Application, AMARE
[11] = Brassica napus, oilseed rape, canola (Brassica napus), read-out: Visual Growth Reduction (%) 14 Days After Application, BRSNN
[12] = Chenopodium album, lambsquarters (Chenopodium album), read-out: Visual Growth Reduction (%) 14 Days After Application, CHEAL
[13] = Euphorbia heterophylla, wild poinsettia (Euphorbia heterophylla), read-out: Visual Growth Reduction (%) 14 Days After Application, EPHHL
[14] = Helianthus annuus, sunflower (Helianthus annuus), read-out: Visual Growth Reduction (%) 14 Days After Application, HELAN

Nc1c(F)c(-c2ccc(Cl)c3occc23)nc(C(=O)O)c1Cl [Compound 2.18]
95 to 100%: pest or weed control at 35 g/ha [2, 10] | pest or weed control at 70 g/ha [2, 10] | pest or weed control at 140 g/ha [2, 10]
60 to 74%: pest or weed control at 70 g/ha [2, 11] | pest or weed control at 140 g/ha [2, 11]
45 to 59%: pest or weed control at 35 g/ha [2, 11]
0 to 29%: pest or weed control at 35 g/ha [1, 3] | pest or weed control at 70 g/ha [1, 3] | pest or weed control at 140 g/ha [1, 3] | pest or weed control at 35 g/ha [1, 4] | pest or weed control at 70 g/ha [1, 4] | pest or weed control at 140 g/ha [1, 4] | pest or weed control at 35 g/ha [1, 5] | pest or weed control at 70 g/ha [1, 5] | pest or weed control at 140 g/ha [1, 5] | pest or weed control at 35 g/ha [1, 6] | pest or weed control at 70 g/ha [1, 6] | pest or weed control at 140 g/ha [1, 6] | pest or weed control at 35 g/ha [1, 7] | pest or weed control at 70 g/ha [1, 7] | pest or weed control at 140 g/ha [1, 7] | pest or weed control at 35 g/ha [1, 8] | pest or weed control at 70 g/ha [1, 8] | pest or weed control at 140 g/ha [1, 8] | pest or weed control at 35 g/ha [2, 9] | pest or weed control at 70 g/ha [2, 9] | pest or weed control at 140 g/ha [2, 9] | pest or weed control at 35 g/ha [2, 13] | pest or weed control at 70 g/ha [2, 13] | pest or weed control at 140 g/ha [2, 13]
85 to 94%: pest or weed control at 35 g/ha [2, 12] | pest or weed control at 70 g/ha [2, 12] | pest or weed control at 140 g/ha [2, 12] | pest or weed control at 140 g/ha [2, 14]
75 to 84%: pest or weed control at 35 g/ha [2, 14] | pest or weed control at 70 g/ha [2, 14]

COC(=O)c1nc(-c2ccc(Cl)c3occc23)nc(N)c1Cl [Compound 2.20]
60 to 74%: pest or weed control at 140 g/ha [1, 6] | pest or weed control at 70 g/ha [2, 9] | pest or weed control at 140 g/ha [2, 9]
95 to 100%: pest or weed control at 35 g/ha [2, 10] | pest or weed control at 70 g/ha [2, 10] | pest or weed control at 140 g/ha [2, 10] | pest or weed control at 70 g/ha [2, 12] | pest or weed control at 140 g/ha [2, 12] | pest or weed control at 70 g/ha [2, 14] | pest or weed control at 140 g/ha [2, 14]
85 to 94%: pest or weed control at 35 g/ha [2, 12] | pest or weed control at 35 g/ha [2, 14]
30 to 44%: pest or weed control at 70 g/ha [1, 6] | pest or weed control at 140 g/ha [2, 11]
45 to 59%: pest or weed control at 35 g/ha [2, 9]
0 to 29%: pest or weed control at 35 g/ha [1, 3] | pest or weed control at 70 g/ha [1, 3] | pest or weed control at 140 g/ha [1, 3] | pest or weed control at 35 g/ha [1, 5] | pest or weed control at 70 g/ha [1, 5] | pest or weed control at 140 g/ha [1, 5] | pest or weed control at 35 g/ha [1, 6] | pest or weed control at 35 g/ha [1, 7] | pest or weed control at 70 g/ha [1, 7] | pest or weed control at 140 g/ha [1, 7] | pest or weed control at 35 g/ha [1, 8] | pest or weed control at 70 g/ha [1, 8] | pest or weed control at 140 g/ha [1, 8] | pest or weed control at 35 g/ha [2, 11] | pest or weed control at 70 g/ha [2, 11] | pest or weed control at 35 g/ha [2, 13] | pest or weed control at 70 g/ha [2, 13] | pest or weed control at 140 g/ha [2, 13]

COC(=O)c1nc(-c2ccc(Cl)c3occc23)nc(N)c1OC [Compound 2.21]
45 to 59%: pest or weed control at 140 g/ha [2, 11]
95 to 100%: pest or weed control at 35 g/ha [2, 10] | pest or weed control at 70 g/ha [2, 10] | pest or weed control at 140 g/ha [2, 10] | pest or weed control at 140 g/ha [2, 12]
60 to 74%: pest or weed control at 70 g/ha [2, 9] | pest or weed control at 140 g/ha [2, 9] | pest or weed control at 35 g/ha [2, 14]
30 to 44%: pest or weed control at 35 g/ha [2, 9] | pest or weed control at 35 g/ha [2, 11] | pest or weed control at 70 g/ha [2, 11]
75 to 84%: pest or weed control at 70 g/ha [2, 14] | pest or weed control at 140 g/ha [2, 14]
85 to 94%: pest or weed control at 35 g/ha [2, 12] | pest or weed control at 70 g/ha [2, 12]
0 to 29%: pest or weed control at 35 g/ha [1, 3] | pest or weed control at 70 g/ha [1, 3] | pest or weed control at 140 g/ha [1, 3] | pest or weed control at 35 g/ha [1, 5] | pest or weed control at 70 g/ha [1, 5] | pest or weed control at 140 g/ha [1, 5] | pest or weed control at 35 g/ha [1, 6] | pest or weed control at 70 g/ha [1, 6] | pest or weed control at 140 g/ha [1, 6] | pest or weed control at 35 g/ha [1, 7] | pest or weed control at 70 g/ha [1, 7] | pest or weed control at 140 g/ha [1, 7] | pest or weed control at 35 g/ha [1, 8] | pest or weed control at 70 g/ha [1, 8] | pest or weed control at 140 g/ha [1, 8] | pest or weed control at 35 g/ha [2, 13] | pest or weed control at 70 g/ha [2, 13] | pest or weed control at 140 g/ha [2, 13]
